Experiment in all cases: NCI-60 cell line screen, 48 h
Test [1] has as its system ACHN.
Test [2] concerns KM12.
The test system of test [3] is SR.
The test system of test [4] is DMS-273.
Test [5] has as its system CCRF-CEM.
The subject of test [6] is SK-MEL-2.
In test [7] the test system is HCC 2998.
Test [8] has as its system UO-31.
The test system of test [9] is NCI-H23.
Test [10] has as its system TK-10.
For test [11], the system named is U-251.
Test [12] deals with A549.
The test system of test [13] is SNB-78.
Test [14] has as its system NCI-H522.
For test [15], the system named is IGROV-1.
Test [16] has as its system OVCAR-3.
Test [17] has as its system RPMI-8226.
For test [18], the system named is HL-60.
Test [19] concerns Malme-3M.
Test [20] deals with A498.

Each structure is given as a SMILES string.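 Five concentrations, 48 hours, 96-well plates. Here, GI50 denotes the concentration required for 50% inhibition of growth.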 The source made the active and inactive calls. Rule as the data show it: active = GI50 up to about 1.1 µM and inactive = higher.

Consider `C#C[C@@H](CCCC)OC(=O)N[C@H](C)c1ccccc1`, for which the GI50 in test [1] was 43.8 µM (inactive); in test [2], 39.7 µM (inactive); in test [3], 21.3 µM (inactive); in test [4], 37.2 µM (inactive); in [5] it was 25.7 µM (inactive); in test [6] it was 23.4 µM (inactive). Moreover, the GI50 in test [7] was 1.96 µM (inactive); in test [8] it was 19 µM (inactive); in [9] it was 1.91 µM (inactive); in test [10], 29.2 µM (inactive); in test [11], 37.4 µM (inactive); in test [12], 6.82 µM (inactive). For the same compound, the GI50 was 94.6 µM (inactive) in test [13]; 1.74 µM (inactive) in test [14]; 23 µM (inactive) in [15]; 35.4 µM (inactive) in test [16]; 23 µM (inactive) in test [17]; 15.3 µM (inactive) in test [18].

Take `Brc1ccc(C[P+]2(c3ccccc3)CCCCC2)cc1.[O-][Cl+3]([O-])([O-])[O-]`: the GI50 is 58.5 µM (inactive) in [19]; > 100 µM (inactive) in [1]; 56.1 µM (inactive) in test [2]; 38.1 µM (inactive) in test [3]; 37.7 µM (inactive) in [4]; 82 µM (inactive) in test [5]. In addition, the GI50 is 33.7 µM (inactive) in test [6]; 36.9 µM (inactive) in [7]; > 100 µM (inactive) in test [8]; 96.2 µM (inactive) in test [9]; 99.5 µM (inactive) in test [10]; 29.6 µM (inactive) in [11]. Further, the GI50 in test [12] was > 100 µM (inactive); in [13], 25.2 µM (inactive); in [20], > 100 µM (inactive); in [14] it was 19 µM (inactive); in test [15], 81.3 µM (inactive); in [16], 43.6 µM (inactive). The GI50 in [17] is 25.8 µM (inactive); in [18] it was 20.4 µM (inactive).

On to `CCOC(=O)/N=c1/nc(N(C)C)ss1`, for which the GI50 in test [19], in test [1], in test [2], in [3], in test [4] and in [5] was > 100 µM (inactive) in each case. Also, the GI50 in test [6], in test [7], in test [8], in test [9], in [10] and in test [11] was > 100 µM (inactive) in each case. Further, the GI50 in test [12], in test [13], in test [20], in test [14], in test [15] and in [17] was > 100 µM (inactive) throughout. The GI50 in test [18] was > 100 µM (inactive).

For the compound `C/C(=N\NC(=S)N1CC2CCC(CC2)C1)c1nccs1`, the GI50 in test [19] was 0.435 µM (active); in test [1] it was 0.3 µM (active); in test [2], 0.133 µM (active); in test [3], 0.0716 µM (active); in test [4], 0.127 µM (active); in [5] it was < 0.01 µM (active). Also, the GI50 was 0.679 µM (active) in test [6]; 0.268 µM (active) in test [7]; 0.129 µM (active) in test [8]; 0.434 µM (active) in [9]; 0.975 µM (active) in test [10]; 0.185 µM (active) in test [11]. The GI50 in test [12] was 0.19 µM (active); in test [13] it was 10.3 µM (inactive); in [20] it was 1.8 µM (inactive); in [14], 0.0471 µM (active); in test [15], 0.158 µM (active); in [16], 0.0415 µM (active). For the same compound, the values for the GI50 in test [17] and in test [18] were 0.0347 µM (active) and < 0.01 µM (active), respectively.

As to `CCCCCCCCCCCCCC(=O)OCC(C[As](=O)(O)O)OC(=O)CCCCCCCCCCCCC` (centres undefined), the GI50 in [19], in test [1], in test [2], in [3], in [4] and in test [5] was > 100 µM (inactive) throughout. For the same compound, the GI50 in [6] is > 100 µM (inactive); in test [7], > 100 µM (inactive); in test [8], > 100 µM (inactive); in test [9], > 100 µM (inactive); in test [10], > 100 µM (inactive); in test [11], 43.9 µM (inactive). Further, the GI50 in test [12], in [13], in test [20], in test [14], in [15] and in test [16] was > 100 µM (inactive) each time. Further, the GI50 in test [17] is > 100 µM (inactive).

As to `COc1c(C)n(CCO)ccc1=O`, the GI50 in [19], in [1], in test [2], in [3], in [4] and in test [5] was > 100 µM (inactive) throughout. The GI50 in [6], in [8], in test [10], in test [11], in test [12] and in test [13] was > 100 µM (inactive) in each case. In addition, the GI50 in [20], in test [14], in [16], in test [17] and in test [18] was > 100 µM (inactive) throughout.

Take `Cc1ccc(NC(=O)CCCC(=O)CC(=O)c2ccc(Br)cc2)cc1`: the GI50 in [19], in [1], in test [2], in test [3], in test [4] and in test [5] was > 100 µM (inactive) each time. For the same compound, the GI50 in [6], in [7], in test [8], in [9], in [10] and in test [11] was > 100 µM (inactive) throughout. The GI50 in test [12], in test [13], in test [20], in [14], in [15] and in test [16] was > 100 µM (inactive) each time. Further, the GI50 in [17] is > 100 µM (inactive).

Consider `COc1ccc(N2C(=O)C3c4[nH]c5ccccc5c4C4CC(C)(C)CC(C)(C)C4C3C2=O)cc1` (centres undefined), for which the GI50 in test [19] was 16.4 µM (inactive); in test [1] it was 14.9 µM (inactive); in [3], 10.3 µM (inactive); in [4], 11 µM (inactive); in test [5] it was 69.7 µM (inactive); in test [7], 33.6 µM (inactive). The GI50 in [8] was 26 µM (inactive); in [9], 13.8 µM (inactive); in [11], 16.8 µM (inactive); in [12] it was 13.2 µM (inactive); in [13] it was 21.4 µM (inactive); in test [20], 14.5 µM (inactive). Besides, the GI50 was 17.2 µM (inactive) in test [14], 22.9 µM (inactive) in [15], 31.8 µM (inactive) in test [17] and 42.5 µM (inactive) in test [18].

Turning to `Clc1ccc(OCc2nnc3n2N=C(c2ccccc2)CS3)c(Cl)c1`, the GI50 in test [19] was > 100 µM (inactive); in test [1], 29 µM (inactive); in [2] it was > 100 µM (inactive); in test [3] it was 4.73 µM (inactive); in test [4], 5.56 µM (inactive); in test [5] it was 4.03 µM (inactive). The GI50 in test [6] was > 100 µM (inactive); in test [7], > 100 µM (inactive); in test [8], 2.14 µM (inactive); in test [9], 5.66 µM (inactive); in test [10] it was 7.98 µM (inactive); in [11], 4.81 µM (inactive). For the same compound, the GI50 was 6.5 µM (inactive) in test [12]; 9.42 µM (inactive) in [13]; 2.24 µM (inactive) in test [20]; 3.81 µM (inactive) in [14]; 6.4 µM (inactive) in test [15]; > 10 µM (inactive) in test [16]. The GI50 in [18] was 3.7 µM (inactive).

On to `COC(=O)C1CCc2nnc(-c3cccnc3)n21` (centres undefined), for which the GI50 in test [19], in [1], in test [2], in [3], in test [4] and in test [5] was > 100 µM (inactive) each time. Moreover, the GI50 in [6], in test [7], in test [8], in test [10], in test [11] and in [12] was > 100 µM (inactive) each time. Besides, the GI50 in test [13], in test [20], in [14], in [15], in [16] and in test [17] was > 100 µM (inactive) throughout. The GI50 in test [18] was > 100 µM (inactive).

For the compound `CCOC1c2cc(C(C)C)c(O)c(O)c2[C@@]23CCCC(C)(C)C2C1OC3=O` (some centres undefined), the GI50 in test [19] was > 100 µM (inactive); in test [1] it was 78 µM (inactive); in test [3], 61.4 µM (inactive); in [4], > 100 µM (inactive); in [5], 47.4 µM (inactive); in test [6], > 100 µM (inactive). Further, the GI50 was > 100 µM (inactive) in test [7]; 35.8 µM (inactive) in test [8]; > 100 µM (inactive) in test [9]; > 100 µM (inactive) in test [10]; > 100 µM (inactive) in [11]; 82.4 µM (inactive) in test [12]. Further, the GI50 is > 100 µM (inactive) in test [13]; 30.6 µM (inactive) in test [14]; > 100 µM (inactive) in test [15]; 84.5 µM (inactive) in [16]; 40.6 µM (inactive) in [17]; 93.1 µM (inactive) in [18].

The values are drawn from ChEMBL document CHEMBL1201862, “PubChem BioAssay data set” (2004).
